# Reference: US11807625B2, “Capsid inhibitors for the prevention of HIV” (Gilead Sciences, Inc., priority 2019, dated 2023)
# Experiment: PK of compound of Formula (Ia) after single subcutaneous dose of solution formulations in Wistar Han rats
# Format: in vivo
# Conditions: male, Wistar Han, rat, plasma, sc, 50 mg/kg, SC 50 mg/kg
# Procedure: Formulations containing the compound of Formula (Ia), or a pharmaceutically acceptable salt thereof, were prepared as solutions and optionally administered subcutaneously or intramuscularly to rats, rabbits, and/or dogs.
# A solution of about 400 mg/mL of the compound of Formula (Ia) having 19.14 w/w % water, 40.66 w/w % PEG 300, 35.20 w/w % of a sodium salt of a compound of Formula (Ia), and 5.00% ethanol was prepared. The solution was administered subcutaneously to male Wistar Han rats at a dose level of about 50 mg/kg and dose volume of 0.125 mL/kg and the pharmacokinetic (PK) profile was determined.
# A solution of about 500 mg/mL of the compound of Formula (Ia) having 16.64 w/w % water, 35.36 w/w % PEG 300, 43.00 w/w % of a sodium salt of a compound of Formula (Ia), and 5.00% ethanol was prepared. The solution was administered subcutaneously to male Wistar Han rats at a dose level of about 50 mg/kg and dose volume of 0.1 mL/kg and the pharmacokinetic (PK) profile was determined.
# A solution of about 400 mg/mL of the compound of Formula (Ia) having 17.00 w/w % water, 36.40 w/w % PEG 300, 35.20 w/w % of a sodium salt of a compound of Formula (Ia), 5.00 w/w % ethanol, and 6.40 w/w % poloxamer 188 was prepared. The solution was administered subcutaneously to male beagle dogs at a dose level of about 12 mg/kg and male Wistar Han rats at a dose level of about 50 mg/kg. The pharmacokinetic profiles were determined, and the results for dogs are summarized in Table and Table, while the results for rats are summarized in Table and Table below.
# A solution of about 500 mg/mL of the compound of Formula (Ia) having 14.06 w/w % water, 30.12 w/w % PEG 300, […] of a sodium salt of a compound of Formula (Ia), 5.00 w/w % ethanol, and 6.40 w/w % poloxamer 188 was prepared. The solution was administered subcutaneously to male beagle dogs at a dose level of about 12 mg/kg and male Wistar Han rats at a dose level of about 50 mg/kg. The pharmacokinetic profiles were determined, and the results for dogs are summarized in Table and Table, while the results for rats are summarized in Table and Table below.
# A solution of about 300 mg/mL of the compound of Formula (Ia) having 23.33 w/w % water, 48.99 w/w % PEG 300, 26.47 w/w % of a sodium salt of a compound of Formula (Ia), and 1.21 w/w % poloxamer 188 was prepared. The solution was administered subcutaneously to male beagle dogs at a dose level of about 6 mg/kg and male Wistar Han rats at a dose level of about 50 mg/kg. The pharmacokinetic profiles were determined, and the results for dogs are summarized in Table and Table, while the results for rats are summarized in Table and Table below.
# A solution of about 400 mg/mL of the compound of Formula (Ia) having 18.80 w/w % water, 40.25 w/w % PEG 300, 34.38 w/w % of a sodium salt of a compound of Formula (Ia), 5.00 w/w % ethanol, and 1.57 w/w % poloxamer 188 was prepared. The solution was administered subcutaneously to male beagle dogs at a dose level of about 12 mg/kg and male Wistar Han rats at a dose level of about 50 mg/kg. The pharmacokinetic profiles were determined, and the results for dogs are summarized in Table and Table, while the results for rats are summarized in Table and Table below.
# A solution of about 500 mg/mL of the compound of Formula (Ia) having 16.29 w/w % water, 34.88 w/w % PEG 300, 41.92 w/w % of a sodium salt of a compound of Formula (Ia), 5.00 w/w % ethanol, and 1.91 w/w % poloxamer 188 was prepared. The solution was administered subcutaneously to male beagle dogs at a dose level of about 12 mg/kg and male Wistar Han rats at a dose level of about 50 mg/kg. The pharmacokinetic profiles were determined, and the results for dogs are summarized in Table and Table, while the results for rats are summarized in Table and Table below.
# A solution of about 400 mg/mL of the compound of Formula (Ia) having 20.90 w/w % water, 44.72 w/w % PEG 300, and 34.38 w/w % of a sodium salt of a compound of Formula (Ia) was prepared. […]
# [1] = individual rats, solution T, 400 mg/mL
# [2] = individual rats, solution U, 500 mg/mL
# [3] = individual rats, solution V, 300 mg/mL
# [4] = mean, n = 3 rats, solution R, 400 mg/mL
# [5] = mean, n = 3 rats, solution S, 500 mg/mL
# [6] = mean, n = 3 rats, solution V, 300 mg/mL
# [7] = mean, n = 5 rats, solution T, 400 mg/mL
# [8] = mean, n = 5 rats, solution U, 500 mg/mL
# [9] = individual rats, solution R, 400 mg/mL
# [10] = individual rats, solution S, 500 mg/mL
structure (smiles),measurement,setting,value
CC(C)(C#Cc1ccc(-c2ccc(Cl)c3c(NS(C)(=O)=O)nn(CC(F)(F)F)c23)c([C@H](Cc2cc(F)cc(F)c2)NC(=O)Cn2nc(C(F)(F)F)c3c2C(F)(F)[C@@H]2C[C@H]32)n1)S(C)(=O)=O [compound of Formula (Ia)],concentration at 8 h,[1],294 nM
same,concentration at 8 h,[2],176 nM
same,concentration at 8 h,[3],170 nM
same,concentration at 8 h,[4],112 nM
same,concentration at 8 h,[5],100 nM
same,concentration at 8 h,[6],155 nM
same,concentration at 8 h,[7],211 nM
same,concentration at 8 h,[8],142 nM
same,concentration at 24 h,[9],167 nM
same,concentration at 24 h,[10],111 nM
same,concentration at 24 h,[2],300 nM
same,concentration at 24 h,[3],222 nM
same,concentration at 24 h,[4],162 nM
same,concentration at 24 h,[5],127 nM
same,concentration at 24 h,[6],193 nM
same,concentration at 24 h,[7],339 nM
same,concentration at 24 h,[8],224 nM
same,concentration at 48 h,[9],184 nM
same,concentration at 48 h,[10],92.6 nM
same,concentration at 48 h,[3],265 nM
same,concentration at 48 h,[4],151 nM
same,concentration at 48 h,[5],123 nM
same,concentration at 48 h,[6],197 nM
same,concentration at 48 h,[7],307 nM
same,concentration at 48 h,[8],211 nM
same,concentration at 72 h,[9],168 nM
same,concentration at 72 h,[10],95.8 nM
same,concentration at 72 h,[1],353 nM
same,concentration at 72 h,[3],187 nM
same,concentration at 72 h,[4],148 nM
same,concentration at 72 h,[5],127 nM
same,concentration at 72 h,[6],148 nM
same,concentration at 72 h,[7],247 nM
same,concentration at 72 h,[8],197 nM
same,concentration at 96 h,[9],181 nM
same,concentration at 96 h,[10],105 nM
same,concentration at 96 h,[2],230 nM
same,concentration at 96 h,[3],164 nM
same,concentration at 96 h,[4],152 nM
same,concentration at 96 h,[5],120 nM
same,concentration at 96 h,[6],136 nM
same,concentration at 96 h,[7],240 nM
same,concentration at 96 h,[8],167 nM
same,concentration at 168 h,[9],191 nM
same,concentration at 168 h,[10],123 nM
same,concentration at 168 h,[3],100 nM
same,concentration at 168 h,[4],160 nM
same,concentration at 168 h,[5],109 nM
same,concentration at 168 h,[6],104 nM
same,concentration at 168 h,[7],173 nM
same,concentration at 168 h,[8],154 nM
same,concentration at 336 h,[9],251 nM
same,concentration at 336 h,[3],194 nM
same,concentration at 336 h,[4],261 nM
same,concentration at 336 h,[5],183 nM
same,concentration at 336 h,[6],201 nM
same,concentration at 336 h,[7],254 nM
same,concentration at 336 h,[8],244 nM
same,concentration at 504 h,[9],348 nM
same,concentration at 504 h,[10],415 nM
same,concentration at 504 h,[3],241 nM
same,concentration at 504 h,[4],353 nM
same,concentration at 504 h,[5],287 nM
same,concentration at 504 h,[6],265 nM
same,concentration at 504 h,[7],301 nM
same,concentration at 504 h,[8],303 nM
same,concentration at 672 h,[9],290 nM
same,concentration at 672 h,[10],407 nM
same,concentration at 672 h,[3],274 nM
